PubChem BioAssay AID1259407 (Chemical Carcinogenesis Research Information System (CCRIS), 2018)
Active and inactive are the calls of the source. How the calls were made is not given here.

Test system: CCRIS mutagenicity, Ames/micronucleus/aberration tests
Assay: CCRIS mutagenicity studies
[1] = Test System: AMES SALMONELLA TYPHIMURIUM, Strain/Indicator: TA97, Metabolic Activation: NONE, Method: PREINCUBATION
[2] = Test System: AMES SALMONELLA TYPHIMURIUM, Strain/Indicator: TA98, Metabolic Activation: NONE, Method: PREINCUBATION
[3] = Test System: AMES SALMONELLA TYPHIMURIUM, Strain/Indicator: TA100, Metabolic Activation: NONE, Method: PREINCUBATION
[4] = Test System: AMES SALMONELLA TYPHIMURIUM, Strain/Indicator: TA100, Metabolic Activation: RAT, LIVER, S-9, AROCLOR 1254, Method: PREINCUBATION

SMILES: Oc1c(I)cc(Cl)c2cccnc12
- mutagenic call (Test System: AMES SALMONELLA TYPHIMURIUM, Strain/Indicator: TA97, Metabolic Activation: HAMSTER, LIVER, S-9, AROCLOR 1254 (10%), Method: PREINCUBATION): inactive; negative
- mutagenic call (Test System: AMES SALMONELLA TYPHIMURIUM, Strain/Indicator: TA97, Metabolic Activation: HAMSTER, LIVER, S-9, AROCLOR 1254 (30%), Method: PREINCUBATION): inactive; negative
- mutagenic call [1]: inactive; negative
- mutagenic call (Test System: AMES SALMONELLA TYPHIMURIUM, Strain/Indicator: TA97, Metabolic Activation: RAT, LIVER, S-9, AROCLOR 1254 (10%), Method: PREINCUBATION): inactive; negative
- mutagenic call (Test System: AMES SALMONELLA TYPHIMURIUM, Strain/Indicator: TA97, Metabolic Activation: RAT, LIVER, S-9, AROCLOR 1254 (30%), Method: PREINCUBATION): inactive; negative
- mutagenic call (Test System: AMES SALMONELLA TYPHIMURIUM, Strain/Indicator: TA98, Metabolic Activation: HAMSTER, LIVER, S-9, AROCLOR 1254 (10%), Method: PREINCUBATION): inactive; negative
- mutagenic call (Test System: AMES SALMONELLA TYPHIMURIUM, Strain/Indicator: TA98, Metabolic Activation: HAMSTER, LIVER, S-9, AROCLOR 1254 (30%), Method: PREINCUBATION): inactive; negative
- mutagenic call [2]: inactive; negative
- mutagenic call (Test System: AMES SALMONELLA TYPHIMURIUM, Strain/Indicator: TA98, Metabolic Activation: RAT, LIVER, S-9, AROCLOR 1254 (10%), Method: PREINCUBATION): inactive; negative
- mutagenic call (Test System: AMES SALMONELLA TYPHIMURIUM, Strain/Indicator: TA98, Metabolic Activation: RAT, LIVER, S-9, AROCLOR 1254 (30%), Method: PREINCUBATION): inactive; negative
- mutagenic call (Test System: AMES SALMONELLA TYPHIMURIUM, Strain/Indicator: TA100, Metabolic Activation: HAMSTER, LIVER, S-9, AROCLOR 1254 (10%), Method: PREINCUBATION): inactive; negative
- mutagenic call (Test System: AMES SALMONELLA TYPHIMURIUM, Strain/Indicator: TA100, Metabolic Activation: HAMSTER, LIVER, S-9, AROCLOR 1254 (30%), Method: PREINCUBATION): inactive; negative
- mutagenic call [3]: inactive; negative
- mutagenic call (Test System: AMES SALMONELLA TYPHIMURIUM, Strain/Indicator: TA100, Metabolic Activation: RAT, LIVER, S-9, AROCLOR 1254 (10%), Method: PREINCUBATION): inactive; negative
- mutagenic call (Test System: AMES SALMONELLA TYPHIMURIUM, Strain/Indicator: TA100, Metabolic Activation: RAT, LIVER, S-9, AROCLOR 1254 (30%), Method: PREINCUBATION): inactive; negative
- mutagenic call (Test System: AMES SALMONELLA TYPHIMURIUM, Strain/Indicator: TA1535, Metabolic Activation: HAMSTER, LIVER, S-9, AROCLOR 1254 (10%), Method: PREINCUBATION): inactive; negative
- mutagenic call (Test System: AMES SALMONELLA TYPHIMURIUM, Strain/Indicator: TA1535, Metabolic Activation: HAMSTER, LIVER, S-9, AROCLOR 1254 (30%), Method: PREINCUBATION): inactive; negative
- mutagenic call (Test System: AMES SALMONELLA TYPHIMURIUM, Strain/Indicator: TA1535, Metabolic Activation: NONE, Method: PREINCUBATION): inactive; negative
- mutagenic call (Test System: AMES SALMONELLA TYPHIMURIUM, Strain/Indicator: TA1535, Metabolic Activation: RAT, LIVER, S-9, AROCLOR 1254 (10%), Method: PREINCUBATION): inactive; negative
- mutagenic call (Test System: AMES SALMONELLA TYPHIMURIUM, Strain/Indicator: TA1535, Metabolic Activation: RAT, LIVER, S-9, AROCLOR 1254 (30%), Method: PREINCUBATION): inactive; negative
- mutagenic call (Test System: AMES SALMONELLA TYPHIMURIUM, Strain/Indicator: TA1537, Metabolic Activation: HAMSTER, LIVER, S-9, AROCLOR 1254 (30%), Method: PREINCUBATION): inactive; negative
- mutagenic call (Test System: AMES SALMONELLA TYPHIMURIUM, Strain/Indicator: TA1537, Metabolic Activation: NONE, Method: PREINCUBATION): inactive; negative
- mutagenic call (Test System: AMES SALMONELLA TYPHIMURIUM, Strain/Indicator: TA1537, Metabolic Activation: RAT, LIVER, S-9, AROCLOR 1254 (30%), Method: PREINCUBATION): inactive; negative

SMILES: O=CNc1ccc2c(c1)Cc1ccccc1-2
- mutagenic call (Test System: AMES SALMONELLA TYPHIMURIUM, Strain/Indicator: TA98, Metabolic Activation: RAT, LIVER, S-9, AROCLOR 1254, Method: STANDARD PLATE): active; positive

SMILES: CN(C)c1ccc(C(=C2C=CC(=[N+](C)C)C=C2)c2ccccc2Cl)cc1
- mutagenic call (Test System: Ames Salmonella typhimurium, Strain/Indicator: TA98, Metabolic Activation: None, Method: Preincubation): inactive; negative
- mutagenic call (Test System: Ames Salmonella typhimurium, Strain/Indicator: TA98, Metabolic Activation: Rat, Liver, S-9, Aroclor 1254, Method: Preincubation): inactive; negative
- mutagenic call (Test System: Ames Salmonella typhimurium, Strain/Indicator: TA100, Metabolic Activation: None, Method: Preincubation): inactive; negative
- mutagenic call (Test System: Ames Salmonella typhimurium, Strain/Indicator: TA100, Metabolic Activation: Rat, Liver, S-9, Aroclor 1254, Method: Preincubation): inactive; negative
- mutagenic call (Test System: Ames Salmonella typhimurium, Strain/Indicator: TA102, Metabolic Activation: None, Method: Preincubation): inactive; negative
- mutagenic call (Test System: Ames Salmonella typhimurium, Strain/Indicator: TA102, Metabolic Activation: Rat, Liver, S-9, Aroclor 1254, Method: Preincubation): inactive; negative
- mutagenic call (Test System: Ames Salmonella typhimurium, Strain/Indicator: TA1535, Metabolic Activation: None, Method: Preincubation): inactive; negative
- mutagenic call (Test System: Ames Salmonella typhimurium, Strain/Indicator: TA1535, Metabolic Activation: Rat, Liver, S-9, Aroclor 1254, Method: Preincubation): inactive; negative

SMILES: Cc1cn([C@H]2C[C@H](O)[C@@H](CO)O2)c(=O)[nH]c1=O
- mutagenic call [1]: inactive; negative
- mutagenic call (Test System: AMES SALMONELLA TYPHIMURIUM, Strain/Indicator: TA97, Metabolic Activation: RAT, LIVER, S-9, AROCLOR 1254, Method: PREINCUBATION): inactive; negative
- mutagenic call [3]: inactive; negative
- mutagenic call [4]: inactive; negative
- mutagenic call (Test System: CHINESE HAMSTER V-79, Strain/Indicator: V-79 (HPRT)/6-THIOGUANINE, Metabolic Activation: NONE, Method: STANDARD PLATE): inactive; negative
- mutagenic call (Test System: CHINESE HAMSTER V-79, Strain/Indicator: V-79/6-THIOGUANINE, Metabolic Activation: NONE, Method: STANDARD PLATE): active; positive
- mutagenic call (Test System: CHINESE HAMSTER V-79, Strain/Indicator: V-79/8-AZAGUANINE, Metabolic Activation: NONE): inactive; negative

SMILES: N=C(N)c1ccccc1
- mutagenic call (Test System: AMES SALMONELLA TYPHIMURIUM, Strain/Indicator: TA98, Metabolic Activation: CO631 CELLS, Method: PREINCUBATION): inactive; negative
- mutagenic call [2]: inactive; negative
- mutagenic call (Test System: AMES SALMONELLA TYPHIMURIUM, Strain/Indicator: TA98, Metabolic Activation: RABBIT, LIVER, S-9, Method: PREINCUBATION): inactive; negative
- mutagenic call (Test System: AMES SALMONELLA TYPHIMURIUM, Strain/Indicator: TA98, Metabolic Activation: RAT HEPATOCYTES, Method: PREINCUBATION): inactive; negative
- mutagenic call (Test System: AMES SALMONELLA TYPHIMURIUM, Strain/Indicator: TA98, Metabolic Activation: RAT, LIVER, S-9, AROCLOR 1254, ATP, Method: PREINCUBATION): inactive; negative
- mutagenic call (Test System: AMES SALMONELLA TYPHIMURIUM, Strain/Indicator: TA98, Metabolic Activation: RAT, LIVER, S-9, AROCLOR 1254, Method: PREINCUBATION): inactive; negative
- mutagenic call (Test System: AMES SALMONELLA TYPHIMURIUM, Strain/Indicator: TA100, Metabolic Activation: RABBIT, LIVER, S-9, Method: PREINCUBATION): inactive; negative
- mutagenic call (Test System: AMES SALMONELLA TYPHIMURIUM, Strain/Indicator: TA100, Metabolic Activation: RAT HEPATOCYTES, Method: PREINCUBATION): inactive; negative
- mutagenic call (Test System: AMES SALMONELLA TYPHIMURIUM, Strain/Indicator: TA100, Metabolic Activation: RAT, LIVER, S-9, AROCLOR 1254, ATP, Method: PREINCUBATION): inactive; negative
- mutagenic call [4]: inactive; negative
